Read-outs that look alike come from different tables or passages of the source.
Assays:
Pin1 = molecular target: T1, Pin1 (Homo sapiens, UniProt Q13526); assay: Evaluation of Pin1 enzyme inhibitory activity (Sensolyte Green Pin1 assay kit); assay type: biochemical
T1 construct: purchased Anaspec
How it was run: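 Pin1 activity was measured with a fluorogenic kit assay (Sensolyte Green) using substrate prepared at 1 μM and protein at 50 μg/ml, both pre-mix concentrations. Compound working solutions were 100, 10, 1 or 0.1 μM, and reactions ran 2 h at room temperature in the dark, read at 490/520 nm. Inhibition was graded A–D by concentration.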

[1] = tested on: MDA-MB 231 triple negative breast cancer cell line; assay: MDA-MB 231 protein expression inhibition (Western blotting, cycline D1 vs Vinculin); assay type: cell-based; conditions: Homo sapiens, compound 10 μM, 72 hours, cycline D1 Western blot, read-out: MBA-MB-231 (amount of the protein compared to the DMSO-treated control group)
Experimental: In order to confirm the ability of the compound represented by formula 1 according to the present invention to inhibit the protein expression of MDA-MB 231 triple negative breast cancer cell line, the following experiment was performed, and the results are shown in Table 3 below.
MDA-MB-231 cells were cultured in a 5% CO2 incubator at 37° C. using RPMI medium supplemented with 10% FBS and 1% penicillin/streptomycin.
The cells were washed with PBS once a day, and then replaced with a new medium. The cells grown at the density of at least 90% 1 day before the experiment were detached using trypsin/EDTA, and then plated at the density of 100,000 per well in a 6-well plate.
On the next day of culture, the compound prepared in each example was treated at a concentration of 10 μM, and DMSO was treated at a concentration of 0.1% of the total as the control, followed by incubation for 72 hours. After 72 hours, the cells were washed twice with PBS, collected by scraping, and centrifuged at 13,000 rpm for 3 minutes to remove all the supernatant and only cells were taken.
RIPA buffer (containing 1× protease inhibitor and phosphatase inhibitor) was added to the prepared cells (80 μl/well), and the plate was shaken once every 5 minutes to disrupt the cells for a total of 15 minutes. The disrupted cells were centrifuged at 13,000 rpm for 15 minutes to collect only the supernatant protein. The obtained protein was quantified using a BCA protein quantification kit (Pierece, MA, USA), and a total of 10 μg of the protein was used for Western blotting.
The protein sample was isolated by 10% SDS-PAGE, and transferred to a PVDF membrane. Anti-human cycline D1 antibody (Cell signal) and anti-Vinculin antibody were bound to the protein sample, and the expression of the protein was measured by using an ECL reagent and LAS4000 equipment. The measurement results were quantified and generalized using ImageJ. The results are shown in Table 3 below by dividing the grades A to D according to the amount of the protein compared to the DMSO-treated control group.

[2] = tested on: A2780 cells (ovarian cancer cells); assay: Cell viability of A2780 cells (Cell-titer Glo); assay type: cell-based; conditions: Homo sapiens
How it was run: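 A2780 ovarian cancer cells seeded at 3000 viable cells/well in RPMI-1640 with 10% FBS, dosed the next day and grown 3 days. Viability measured by Cell-titer Glo luminescence.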

[3] = tested on: A2780-SP cells (ovarian cancer stem cells); assay: Sphere cell viability of A2780-SP cells (Cell-titer Glo); assay type: cell-based
How it was run: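 A2780-SP ovarian cancer stem cells grown as spheres in ultra-low-attachment wells (1,500 cells/well) in neurobasal stem-cell medium with bFGF, EGF, B27. Compound added the day after plating, re-dosed on day 4, 8-day culture total; viability by CellTiter-Glo luminescence.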

[4] = Table 2, read-out: concentration at which Pin1 inhibitory activity was exhibited
[5] = concentration at which the Pin1 enzyme activity is inhibited, 2 hours at room temperature, fluorescence 490 nm/520 nm, read-out: Pin 1 inhibition
[6] = 72 h, cell viability, culture for 3 days, read-out: A2780
[7] = A2780, Table 5, read-out: A2780 cell concentration
[8] = 192 h, sphere cell viability, culture for 8 days, read-out: A2780-SP
[9] = Table 5, read-out: the concentration (second list of b710, cell line not named; matches A2780-SP column)

T1 sequence (Q13526 whole entry): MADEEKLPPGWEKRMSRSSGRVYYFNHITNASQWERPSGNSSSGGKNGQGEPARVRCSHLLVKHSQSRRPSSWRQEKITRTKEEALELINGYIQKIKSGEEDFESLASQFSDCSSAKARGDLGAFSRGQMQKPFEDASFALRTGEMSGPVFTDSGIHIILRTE

| IC50 (Pin1; [4]) [nM] | IC50 (Pin1; [5]) [nM] | IC50 [2, 6] [µM] | IC50 [2, 7] [µM] | IC50 [3, 8] [nM] | IC50 [3, 9] [nM] | Structure (SMILES) | activity at 10 µM [1] [%] |
| --- | --- | --- | --- | --- | --- | --- | --- |
| < 1000 | < 1000 | 1 to 10 | < 10 | < 1000 | < 1000 | CN1CCN(CCCOc2ccc(S(=O)(=O)NCCCc3c[nH]c4ccc(F)cc34)cc2)CC1 [Example 56, N-(3-(5-fluoro-1H-indol-3-yl)propyl)-4-(3-(4-methylpiperazin-1-yl)propoxy)benzenesulfonamide] | 35 to 50 |
| – | 1000 to 10000 | 1 to 10 | < 10 | < 1000 | < 1000 | CN1CCC(CCCOc2ccc(S(=O)(=O)NCCCc3c[nH]c4ccc(F)cc34)cc2)CC1 [Example 59, N-(3-(5-fluoro-1H-indol-3-yl)propyl)-4-(3-(1-methylpiperidin-4-yl)propoxy)benzenesulfonamide] | 35 to 50 |
| < 1000 | < 1000 | 1 to 10 | < 10 | < 1000 | < 1000 | O=S(=O)(NCCCc1c[nH]c2ccc(F)cc12)c1ccc(OCCCN2CCNCC2)cc1 [Example 61, N-(3-(5-fluoro-1H-indol-3-yl)propyl)-4-(3-(piperazin-1-yl)propoxy)benzenesulfonamide] | 0 to 35 |
| < 1000 | < 1000 | 1 to 10 | < 10 | < 1000 | < 1000 | CN1CCN(CCCOc2ccc(S(=O)(=O)NCCCc3c[nH]c4ccc(Cl)cc34)cc2)CC1 [Example 66, N-(3-(5-chloro-1H-indol-3-yl)propyl)-4-(3-(4-methylpiperazin-1-yl)propoxy)benzenesulfonamide] | 0 to 35 |
| < 1000 | < 1000 | > 10 | – | 1000 to 10000 | – | CNC1CN(CCCOc2ccc(S(=O)(=O)NCCCc3c[nH]c4ccc(Cl)cc34)cc2)C1 [Example 77, N-(3-(5-chloro-1H-indole-3-yl)propyl)-4-(3-(3-(methylamino)azetidine-1-yl)propoxy)benzenesulfonamide] | 0 to 35 |
| < 1000 | < 1000 | > 10 | – | < 1000 | < 1000 | O=S(=O)(NCCCc1c[nH]c2ccc(Cl)cc12)c1ccc(NCCCC2CCNCC2)cc1 [Example 88, N-(3-(5-chloro-1H-indole-3-yl)propyl)-4-((3-(piperidine-4-yl)propyl)amino)benzenesulfonamide] | 50 to 70 |
| < 1000 | < 1000 | > 10 | – | < 1000 | < 1000 | O=S(=O)(NCCCc1c[nH]c2ccc(Cl)cc12)c1ccc(CCCCN2CCCCC2)cc1 [Example 90, N-(3-(5-chloro-1H-indole-3-yl)propyl)-4-(4-(piperidine-1-yl)butyl)benzenesulfonamide] | 35 to 50 |
| < 1000 | < 1000 | > 10 | – | < 1000 | < 1000 | CN1CCC(CCCOc2ccc(S(=O)(=O)NCCCc3c[nH]c4ccc(Cl)cc34)cc2)CC1 [Example 92, N-(3-(5-chloro-1H-indole-3-yl)propyl)-4-(3-(1-methylpiperidine-4-yl)propoxy)benzenesulfonamide] | 0 to 35 |
| < 1000 | < 1000 | 1 to 10 | < 10 | < 1000 | < 1000 | O=S(=O)(NCCCc1c[nH]c2ccc(Cl)cc12)c1ccc(OCCCC2CCNCC2)cc1 [Example 93, N-(3-(5-chloro-1H-indole-3-yl)propyl)-4-(3-(piperidine-4-yl)propoxy)benzenesulfonamide] | 0 to 35 |
| < 1000 | < 1000 | > 10 | – | < 1000 | < 1000 | CN1CCN(CCCOc2ccc(S(=O)(=O)NCCCc3c[nH]c4ccc(Cl)cc34)cc2F)CC1 [Example 103, N-(3-(5-chloro-1H-indole-3-yl)propyl)-3-fluoro-4-(3-(4-methylpiperazine-1-yl)propoxy)benzenesulfonamide] | 35 to 50 |
| < 1000 | < 1000 | > 10 | – | < 1000 | < 1000 | O=S(=O)(NCCCc1c[nH]c2ccc(Cl)cc12)c1ccc(OCCCN2CCNCC2)c(F)c1 [Example 104, N-(3-(5-chloro-1H-indol-3-yl)propyl)-3-fluoro-4-(3-(piperazin-1-yl)propoxy)benzenesulfonamide] | 70 to 100 |
| < 1000 | < 1000 | > 10 | – | < 1000 | < 1000 | O=S(=O)(NCCCc1c[nH]c2ccc(Cl)cc12)c1ccc(OCCCN2CCC(O)CC2)c(F)c1 [Example 105, N-(3-(5-chloro-1H-indol-3-yl)propyl)-3-fluoro-4-(3-(4-hydroxypiperidin-1-yl)propoxy)benzenesulfonamide] | 70 to 100 |
| < 1000 | < 1000 | 1 to 10 | < 10 | < 1000 | < 1000 | O=S(=O)(NCCCc1c[nH]c2ccc(Cl)cc12)c1ccc(OCCCN2CCCNCC2)c(F)c1 [Example 106, 4-(3-(1,4-diazepan-1-yl)propoxy)-N-(3-(5-chloro-1H-indol-3-yl)propyl)-3-fluorobenzenesulfonamide] | 50 to 70 |
| < 1000 | < 1000 | 1 to 10 | < 10 | < 1000 | < 1000 | O=S(=O)(NCCCc1c[nH]c2ccc(Cl)cc12)c1ccc(Oc2cccc(N3CCNCC3)c2)cc1 [Example 121, N-(3-(5-chloro-1H-indol-3-yl)propyl)-4-(3-(piperazin-1-yl)phenoxy)benzenesulfonamide] | 0 to 35 |
| < 1000 | < 1000 | 1 to 10 | < 10 | 1000 to 10000 | – | CN1CCN(c2cccc(Nc3ccc(S(=O)(=O)NCCCc4c[nH]c5ccc(Cl)cc45)cc3)c2)CC1 [Example 123, N-(3-(5-chloro-1H-indole-3-yl)propyl)-4-((3-(4-methylpiperazine-1-yl)phenyl)amino)benzenesulfonamide] | 70 to 100 |
